Data on nine compounds can be found in patent publication US20240158446A1, “CYCLIC COMPOUND HAVING SELECTIVE INHIBITORY ACTION ON KRAS OVER HRAS AND NRAS” (CHUGAI SEIYAKU KABUSHIKI KAISHA, priority 2021, published 2024).

As a reminder, the pKd is the negative decadic logarithm of the Kd, by convention in mol/L. Broadly, the pIC50 is the IC50 on a negative log10 scale, so that one unit is a factor of ten. Read a high pIC50 as a low IC50.

Each structure is given as a SMILES string. pIC50, pKd: −log10 of the molar value. Like-named read-outs stand apart in the source and are kept apart here.

The target in test [1] is GDP-bound NRAS wild-type protein (Homo sapiens, UniProt P01111). The test can be described thus: Binding to NRAS by surface plasmon resonance (SPR), Single Cycle Kinetics. The conditions noted are these: for NRAS/KRAS (ratio of KD value for NRAS to KD value for KRAS): SPR, GDP-bound NRAS wild-type protein vs GDP-bound KRAS wild-type protein; for NRAS/KRAS (ratio of KD value with respect to GDP-bound NRAS wild-type protein to KD value with respect to KRAS): SPR KD ratio NRAS/KRAS, class symbols.
GDP-bound NRAS wild-type protein, sequence (P01111 whole entry): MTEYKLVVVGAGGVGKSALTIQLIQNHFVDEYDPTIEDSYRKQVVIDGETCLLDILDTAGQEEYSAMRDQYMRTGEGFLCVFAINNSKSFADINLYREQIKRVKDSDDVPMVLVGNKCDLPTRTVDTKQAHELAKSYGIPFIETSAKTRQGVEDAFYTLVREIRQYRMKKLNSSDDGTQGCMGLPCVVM

Test [2] deals with GDP-bound HRAS wild-type protein (Homo sapiens, UniProt P01112). The test can be described thus: Binding to HRAS by surface plasmon resonance (SPR), Single Cycle Kinetics. The conditions noted are these: for HRAS/KRAS (ratio of KD value for HRAS to KD value for KRAS): SPR, GDP-bound HRAS wild-type protein vs GDP-bound KRAS wild-type protein; for HRAS/KRAS (ratio of KD value with respect to GDP-bound HRAS wild-type protein to KD value with respect to KRAS): SPR KD ratio HRAS/KRAS, class symbols. In general terms: Surface plasmon resonance follows binding to a sensor surface in real time, without labels.
GDP-bound HRAS wild-type protein, sequence (P01112 whole entry): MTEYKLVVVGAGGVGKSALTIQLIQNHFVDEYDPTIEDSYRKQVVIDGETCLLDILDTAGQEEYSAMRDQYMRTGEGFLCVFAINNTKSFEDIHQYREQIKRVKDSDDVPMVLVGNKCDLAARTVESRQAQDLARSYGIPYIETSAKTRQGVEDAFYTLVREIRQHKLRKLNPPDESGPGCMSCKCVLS

Test [3] deals with GDP-bound KRAS wild-type protein (Homo sapiens, UniProt P01116). The test can be described thus: Binding to KRAS by surface plasmon resonance (SPR), Single Cycle Kinetics. The settings on record: GDP-bound KRAS wild-type protein, read-out: KRAS KD.
GDP-bound KRAS wild-type protein, sequence (P01116 whole entry): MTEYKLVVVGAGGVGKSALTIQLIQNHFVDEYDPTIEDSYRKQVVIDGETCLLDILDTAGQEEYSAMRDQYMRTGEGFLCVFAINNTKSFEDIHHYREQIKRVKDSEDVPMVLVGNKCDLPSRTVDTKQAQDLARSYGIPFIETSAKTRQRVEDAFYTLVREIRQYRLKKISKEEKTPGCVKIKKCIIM
The subject of test [4] is human lung cancer strain NCI-H441.
Setting [5] is: SPR, Single Cycle Kinetics, 1:1 binding model.
Setting [6] is: SPR Single Cycle Kinetics, 1:1 binding model.
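Throughout, for pIC50: cell proliferation inhibition after four days measured by CellTiter-Glo.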

On to `CCO[C@@H]1C[C@H]2C(=O)NC3(CCC3)C(=O)N(C)[C@@H](C3CCCC3)C(=O)N(C)[C@H](C(=O)N3CCOCC3)CC(=O)N(C)[C@@H](Cc3ccccc3C#N)C(=O)N[C@@H]([C@@H](C)CC)C(=O)N(C)CC(=O)N(C)[C@H]3CCCCCN(C3=O)[C@@H](Cc3ccc(F)cc3)C(=O)N(C)CC(=O)N[C@@H](CCc3cc(F)c(C(F)(F)F)c(F)c3)C(=O)N2C1` [PP1185], for which the “NRAS/KRAS (ratio of KD value for NRAS to KD value for KRAS)” value in test [1] was “B (a compound having 3 or more and less than 10 is denoted as B)”. For the same compound, the “HRAS/KRAS (ratio of KD value for HRAS to KD value for KRAS)” value in test [2] was “B (a compound having 3 or more and less than 10 is denoted as B)”. Besides, in test [3] (SPR, Single Cycle Kinetics), the pKd is 9.30. Also, the pIC50 in test [4] was 6.76.

Take `CCO[C@@H]1C[C@H]2C(=O)NC3(CCC3)C(=O)N(C)[C@@H](C3CCCC3)C(=O)N(C)[C@H](C(=O)N3CCCC3)CC(=O)N(C)[C@@H](CC)C(=O)N[C@@H]([C@@H](C)CC)C(=O)N(C)CC(=O)N(C)[C@H]3C/C=C\CCN(C3=O)[C@@H](CC3CCCCC3)C(=O)N(C)CC(=O)N[C@@H](CCc3cc(F)c(C(F)(F)F)c(F)c3)C(=O)N2C1` [PP1443, (2S,8S,12R,14S,20S,23S,27S,30S,36S,38Z)-2-(cyclohexylmethyl)-20-cyclopentyl-8-[2-[3,5-difluoro-4-(trifluoromethyl)phenyl]ethyl]-12-ethoxy-27-ethyl-4,19,22,26,32,35-hexamethyl-30-[(1S)-1-methylpropyl]-23-(pyrrolidine-1-carbonyl)spiro[1,4,7,10,16,19,22,26,29,32,35-undecazatricyclo[34.5.1.0^10,14]dotetracont-38-ene-17,1′-cyclobutane]-3,6,9,15,18,21,25,28,31,34,42-undecone]: the “NRAS/KRAS (ratio of KD value for NRAS to KD value for KRAS)” value in test [1] (KD ratio class) was “AA (a compound having 20 or more is denoted as AA)”. Besides, the “HRAS/KRAS (ratio of KD value for HRAS to KD value for KRAS)” value in test [2] (KD ratio class) is “A (a compound having 10 or more and less than 20 is denoted as A)”. Moreover, in test [3] (setting [5]), the negative-log Kd (pKd) is 9.82. This compound showed a pIC50 in test [4] of 7.46.

Turning to `CC[C@H](C)[C@@H]1NC(=O)[C@H](COC)N(C)C(=O)C[C@@H](C(=O)N(C)C)N(C)C(=O)[C@H](C2CCCC2)N(C)C(=O)C2(CC(C)(C)C2)NC(=O)[C@@H]2C[C@@H](OC(C)C)CN2C(=O)[C@H](CCc2ccc(Cl)c(Cl)c2)NC(=O)CN(C)C(=O)[C@H](CC2CCCCC2)N2CC/C=C\C[C@@H](C2=O)N(C)C(=O)CN(C2CC2)C1=O` [PP2513], the “NRAS/KRAS (ratio of KD value for NRAS to KD value for KRAS)” value in test [1] is “A (a compound having 10 or more and less than 20 is denoted as A)”. Also, the “HRAS/KRAS (ratio of KD value for HRAS to KD value for KRAS)” value in test [2] is “A (a compound having 10 or more and less than 20 is denoted as A)”. For the same compound, the pKd in test [3] (SPR, Single Cycle Kinetics) was 8.59. This compound also had a pIC50 in test [4] of 6.52.

In the case of `CCO[C@@H]1C[C@H]2C(=O)NC3(CCC3)C(=O)N(C)[C@@H](C3CCCC3)C(=O)N(C)[C@H](C(=O)N(C)C)CC(=O)N(C)[C@@H](CC(C)C)C(=O)N[C@@H]([C@@H](C)CC)C(=O)N(C)CC(=O)N(C)[C@H]3C/C=C\CCN(C3=O)[C@@H](Cc3ccc(F)cc3C)C(=O)N(C)CC(=O)N[C@@H](CCc3cc(F)c(Cl)c(F)c3)C(=O)N2C1` [PP1481], the “NRAS/KRAS (ratio of KD value for NRAS to KD value for KRAS)” value in test [1] (KD ratio class) was “A (a compound having 10 or more and less than 20 is denoted as A)”. In addition, the “HRAS/KRAS (ratio of KD value for HRAS to KD value for KRAS)” value in test [2] (KD ratio class) is “B (a compound having 3 or more and less than 10 is denoted as B)”. Further, the pKd in test [3] (setting [5]) is 8.92. In test [4], the pIC50 was 7.83.

With `CCO[C@@H]1C[C@H]2C(=O)NC3(CCC3)C(=O)N(C)[C@@H](C3CCCC3)C(=O)N(C)[C@H](C(=O)N3CCOCC3)CC(=O)N(C)[C@@H](Cc3ccccc3C#N)C(=O)N[C@@H]([C@@H](C)CC)C(=O)N(C)CC(=O)N(C)[C@H]3CCCCCN(C3=O)[C@@H](Cc3ccc(C(F)(F)F)cc3)C(=O)N(C)CC(=O)N[C@@H](CCc3cc(F)c(C(F)(F)F)c(F)c3)C(=O)N2C1` [PP1165], the “NRAS/KRAS (ratio of KD value for NRAS to KD value for KRAS)” value in test [1] was “A (a compound having 10 or more and less than 20 is denoted as A)”. Also, in test [2], the “HRAS/KRAS (ratio of KD value for HRAS to KD value for KRAS)” value is “B (a compound having 3 or more and less than 10 is denoted as B)”. The pKd in test [3] (SPR, Single Cycle Kinetics) was 8.82. In test [4], this compound gave a pIC50 of 6.53.

`CCC[C@H]1C(=O)N[C@@H]([C@@H](C)CC)C(=O)N(C)CC(=O)N(C)[C@H]2C/C=C\CCN(C2=O)[C@@H](Cc2ccc(C(F)(F)F)cc2)C(=O)N(C)CC(=O)N[C@@H](CCc2ccc(C(F)(F)F)c(OC)c2)C(=O)N2C[C@H](OCC)C[C@H]2C(=O)N(C)C2(CCC2)C(=O)N(C)[C@@H](C(CC)CC)C(=O)N(C)[C@H](C(=O)N(C)C)CC(=O)N1C` [PP2382]: in test [1], the “NRAS/KRAS (ratio of KD value for NRAS to KD value for KRAS)” value was “A (a compound having 10 or more and less than 20 is denoted as A)”. The “HRAS/KRAS (ratio of KD value for HRAS to KD value for KRAS)” value in test [2] is “A (a compound having 10 or more and less than 20 is denoted as A)”. For the same compound, the pKd in test [3] (SPR, Single Cycle Kinetics) was 9.92. This compound showed a pIC50 in test [4] of 8.34.

On to `CCO[C@@H]1C[C@H]2C(=O)NC3(CC(C)(C)C3)C(=O)N(C)[C@@H](C3CCCC3)C(=O)N(C)[C@H](C(=O)N3CCCCC3)CC(=O)N(C)[C@@H](COC)C(=O)N[C@@H]([C@@H](C)CC)C(=O)N(C)CC(=O)N(C)[C@H]3C/C=C\CCN(C3=O)[C@@H](Cc3ccc(C)cc3)C(=O)N(C)CC(=O)N[C@@H](CCc3cc(F)c(C(F)(F)F)c(F)c3)C(=O)N2C1` [PP2668], for which the “NRAS/KRAS (ratio of KD value with respect to GDP-bound NRAS wild-type protein to KD value with respect to KRAS)” value in test [1] was “A (a compound having 10 or more and less than 20 is denoted as A)”. The “HRAS/KRAS (ratio of KD value with respect to GDP-bound HRAS wild-type protein to KD value with respect to KRAS)” value in test [2] is “A (a compound having 10 or more and less than 20 is denoted as A)”. Moreover, the pKd in test [3] (setting [6]) is 9.74. Further, in test [4], the pIC50 was 7.99.

Regarding `CCC[C@H]1C(=O)N[C@@H](CC(C)C)C(=O)N(CCOC)CC(=O)N(C)[C@H]2C/C=C\CCN(C2=O)[C@@H](Cc2ccc(C)cc2)C(=O)N(C)CC(=O)N[C@@H](CCc2ccc(C(F)(F)F)c(Cl)c2)C(=O)N2C[C@H](OCC)C[C@H]2C(=O)NC2(CCC2)C(=O)N(C)[C@@H](C2CCCC2)C(=O)N(C)[C@H](C(=O)N(C)C)CC(=O)N1C` [PP2546], the “NRAS/KRAS (ratio of KD value with respect to GDP-bound NRAS wild-type protein to KD value with respect to KRAS)” value in test [1] is “B (a compound having 3 or more and less than 10 is denoted as B)”. In addition, the “HRAS/KRAS (ratio of KD value with respect to GDP-bound HRAS wild-type protein to KD value with respect to KRAS)” value in test [2] is “B (a compound having 3 or more and less than 10 is denoted as B)”. Also, the pKd in test [3] (setting [6]) was 8.33. In test [4], this compound showed a pIC50 of 6.53.

Turning to `CCO[C@@H]1C[C@H]2C(=O)NC3(CCCC3)C(=O)N(C)[C@@H](C3CCCC3)C(=O)N(C)[C@H](C(=O)N3CCOCC3)CC(=O)N(C)[C@@H](COC)C(=O)N[C@@H]([C@@H](C)CC)C(=O)N3CC[C@H]3C(=O)N(C)[C@H]3CCCCCN(C3=O)[C@@H](Cc3ccc(C(F)(F)F)cc3)C(=O)N(C)CC(=O)N[C@@H](CCc3cc(F)c(C(F)(F)F)c(F)c3)C(=O)N2C1` [PP0867], the “NRAS/KRAS (ratio of KD value for NRAS to KD value for KRAS)” value in test [1] was “B (a compound having 3 or more and less than 10 is denoted as B)”. Also, in test [2], the “HRAS/KRAS (ratio of KD value for HRAS to KD value for KRAS)” value is “B (a compound having 3 or more and less than 10 is denoted as B)”. The pKd in test [3] (SPR, Single Cycle Kinetics) is 8.92. In addition, in test [4], the pIC50 is 6.69.
